Assay [1] concerns the target T1, Pf20S β5 (Plasmodium falciparum, UniProt Q8IJT1).
T1 sequence (Q8IJT1 61-271): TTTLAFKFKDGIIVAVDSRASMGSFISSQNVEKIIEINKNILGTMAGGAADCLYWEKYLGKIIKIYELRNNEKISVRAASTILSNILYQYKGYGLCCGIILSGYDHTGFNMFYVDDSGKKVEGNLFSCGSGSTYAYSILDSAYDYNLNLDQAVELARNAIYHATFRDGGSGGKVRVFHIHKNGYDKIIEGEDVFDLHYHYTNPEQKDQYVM
T1 sequence (A0A5K1K7U1 29-240 partner): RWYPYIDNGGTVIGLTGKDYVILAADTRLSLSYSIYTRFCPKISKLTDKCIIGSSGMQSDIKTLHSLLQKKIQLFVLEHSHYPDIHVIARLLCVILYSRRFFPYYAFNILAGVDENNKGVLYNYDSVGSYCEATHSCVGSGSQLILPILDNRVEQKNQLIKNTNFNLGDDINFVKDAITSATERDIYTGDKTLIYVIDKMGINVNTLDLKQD
As to the kind of experiment: fluorogenic peptidase assay. The assay is classed as biochemical.

The target in assay [2] is T2, human c-20S β5c (Homo sapiens, UniProt P28074).
T2 sequence (P28074 60-263): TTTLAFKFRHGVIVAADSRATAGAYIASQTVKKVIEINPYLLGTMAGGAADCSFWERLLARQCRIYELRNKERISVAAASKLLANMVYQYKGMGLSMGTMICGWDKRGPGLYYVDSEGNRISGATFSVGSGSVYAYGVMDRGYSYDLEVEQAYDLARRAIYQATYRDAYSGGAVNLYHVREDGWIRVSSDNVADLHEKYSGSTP
T2 sequence (P20618 29-241 partner): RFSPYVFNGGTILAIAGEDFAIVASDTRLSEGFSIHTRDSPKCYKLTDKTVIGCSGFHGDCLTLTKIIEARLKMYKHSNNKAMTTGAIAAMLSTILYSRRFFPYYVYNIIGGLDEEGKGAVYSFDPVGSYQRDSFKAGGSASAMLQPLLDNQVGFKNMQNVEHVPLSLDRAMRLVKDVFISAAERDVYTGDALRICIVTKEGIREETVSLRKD
The assay is described as follows: fluorogenic peptidase assay. The assay is classed as biochemical. Particulars: 25 μM suc-LLVY-AMC; 0.2 nM c-20S; 0.02% SDS; pH 7.5; β5c active site.

The target in assay [3] is T3, human i-20S β5i (Homo sapiens, UniProt P28062).
T3 sequence (P28062 73-276): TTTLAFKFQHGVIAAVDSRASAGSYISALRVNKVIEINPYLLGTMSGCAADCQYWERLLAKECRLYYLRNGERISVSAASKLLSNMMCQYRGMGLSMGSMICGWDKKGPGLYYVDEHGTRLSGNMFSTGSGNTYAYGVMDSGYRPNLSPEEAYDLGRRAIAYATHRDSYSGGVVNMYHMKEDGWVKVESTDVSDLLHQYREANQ
T3 sequence (P20618 29-241 partner): T2 sequence (P20618 29-241 partner)
The assay is described as follows: fluorogenic peptidase assay. The class given is biochemical. The conditions noted are these: 15 μM Ac-ANW-AMC; 0.4 nM i-20S; 0.02% SDS; pH 7.5; β5i active site.

In assay [4] the test system is Plasmodium falciparum Pf3D7. As to the kind of experiment: microbe, parasite or virus in culture. The conditions noted are these: Erythrocyte, read-out: EC50 (nM) Pf3D7. Set-up: species or system P. falciparum 3D7 in human red blood cells.
The target of assay [5] is T1, Pf20S β5. As to the kind of experiment: biochemical.
Assay [6] concerns the target T3, human i-20S β5i. Particulars: read-out: IC50 (nM) i-20S; inhibitor.
Assay [7] deals with T2, human c-20S β5c. Particulars: read-out: IC50 (nM) c-20S; inhibitor.

Broadly, the IC50 is the concentration that gives 50% inhibition. In general, EC50 refers to the concentration that produces a half-maximal response.

Read-outs that look alike come from different tables or passages of the source.

With `C[C@H]1[C@@H](CC(=O)N[C@@H](CC(=O)NC(C)(C)C)C(=O)NCCNC(=O)c2cc(-c3ccccc3F)ccc2F)O[C@@H]2O[C@@]3(C)CC[C@H]4[C@H](C)CC[C@@H]1[C@@]24OO3` [ATZ1], the results for the IC50 on Pf20S β5 [1], against human c-20S β5c [2] and against human i-20S β5i [3] were 0.0632 ± 0.011 µM, 3.6 µM and 0.65 ± 0.094 µM, respectively.
As to `C[C@H]1[C@@H](CC(=O)NCC(=O)N[C@@H](CC(=O)NC(C)(C)C)C(=O)NCCNC(=O)c2cc(-c3ccccc3F)ccc2F)O[C@@H]2O[C@@]3(C)CC[C@H]4[C@H](C)CC[C@@H]1[C@@]24OO3` [ATZ2], the IC50 against human c-20S β5c [2] turned out to be 0.21 ± 0.04 µM; at human i-20S β5i [3] it was 0.073 ± 0.019 µM.
Take `C[C@H]1[C@@H](CC(=O)NCCC(=O)N[C@@H](CC(=O)NC(C)(C)C)C(=O)NCCNC(=O)c2cc(-c3ccccc3F)ccc2F)O[C@@H]2O[C@@]3(C)CC[C@H]4[C@H](C)CC[C@@H]1[C@@]24OO3` [ATZ3]: the IC50 stood at 0.0024 ± 0.0004 µM at Pf20S β5 [1] and 0.26 ± 0.051 µM against human i-20S β5i [3].
As to `C[C@H]1[C@@H](CC(=O)NCCCC(=O)N[C@@H](CC(=O)NC(C)(C)C)C(=O)NCCNC(=O)c2cc(-c3ccccc3F)ccc2F)O[C@@H]2O[C@@]3(C)CC[C@H]4[C@H](C)CC[C@@H]1[C@@]24OO3` [ATZ4], the IC50 at human c-20S β5c [2] was determined as 0.89 ± 0.14 µM; against human i-20S β5i [3], 0.2 ± 0.057 µM.
On to `C[C@H]1[C@H](OC(=O)CCC(=O)O)O[C@@H]2O[C@@]3(C)CC[C@H]4[C@H](C)CC[C@@H]1[C@@]24OO3` [Artesunate], for which the EC50 in assay [4] turned out to be 6.2 ± 4 nM. The IC50 was over 100 µM at Pf20S β5 [5], over 100000 nM on human i-20S β5i [6] and over 100000 nM at human c-20S β5c [7].
Take `CC(C)(C)NC(=O)C[C@H](NC(=O)CCCNC(=O)OC(C)(C)C)C(=O)NCCNC(=O)c1cc(-c2ccccc2F)ccc1F` [PI01]: the IC50 against human c-20S β5c [2] came out at 2 µM; at human i-20S β5i [3] it was 0.2 ± 0.046 µM.
On to `C[C@H]1[C@H](OC(=O)CCC(=O)N[C@@H](CC(=O)NC(C)(C)C)C(=O)NCCNC(=O)c2cc(-c3ccccc3)ccn2)O[C@@H]2O[C@@]3(C)CC[C@H]4[C@H](C)CC[C@@H]1[C@@]24OO3` [WZ-06, (3R,5aS,6R,8aS,9R,10S,12R,12aR)-3,6,9-trimethyldecahydro-12H-3,12-epoxy[1,2]dioxepino[4,3-i]isochromen-10-yl 4-(((S)-4-(tert-butylamino)-1,4-dioxo-1-((2-(4-phenylpicolinamido)ethyl)amino)butan-2-yl)amino)-4-oxobutanoate], for which, in assay [4], the EC50 worked out at 3.6 ± 0.01 nM. For the same compound, the values for the IC50 on Pf20S β5 [5] and on human i-20S β5i [6] were 0.0135 ± 0.0076 µM and 1100 nM, respectively.
As for `C[C@H]1[C@H](OC(=O)CCC(=O)N[C@@H](CC(=O)NC(C)(C)C)C(=O)NCCNC(=O)c2cc(-c3ccccc3)ccn2)O[C@@H]2O[C@@]3(C)CC[C@H]4[C@H](C)CC[C@@H]1[C@@]24OO3` [WZ-06], half-maximal inhibition at Pf20S β5 [1] (IC50) required 0.006 µM.
On to `C[C@H]1[C@H](OC(=O)CCC(=O)N[C@@H](CC(=O)NC(C)(C)C)C(=O)NCCNC(=O)c2cc(-c3ccccc3F)ccc2F)O[C@@H]2O[C@@]3(C)CC[C@H]4[C@H](C)CC[C@@H]1[C@@]24OO3` [WZ-13, (3R,5aS,6R,8aS,9R,10S,12R,12aR)-3,6,9-trimethyldecahydro-12H-3,12-epoxy[1,2]dioxepino[4,3-i]isochromen-10-yl 4-(((S)-4-(tert-butylamino)-1-((2-(2',4-difluoro-[1,1'-biphenyl]-3-carboxamido)ethyl)amino)-1,4-dioxobutan-2-yl)amino)-4-oxobutanoate], for which the EC50 in assay [4] was 2.5 ± 0.7 nM. In addition, the figures for the IC50 against Pf20S β5 [5], on human i-20S β5i [6] and on human c-20S β5c [7] were 0.0055 ± 0.0038 µM, 158 ± 50 nM and 440 ± 110 nM, respectively.
The compound `C[C@H]1[C@H](OC(=O)CCC(=O)N[C@@H](CC(=O)NC(C)(C)C)C(=O)NCCNC(=O)c2cc(-c3ccccc3F)ccc2F)O[C@@H]2O[C@@]3(C)CC[C@H]4[C@H](C)CC[C@@H]1[C@@]24OO3` [WZ-13] came in with a concentration for half-maximal inhibition (IC50) against Pf20S β5 [1] of 0.002 µM.
Turning to `CC(C)(C)NC(=O)C[C@H](NC(=O)CCC(=O)O)C(=O)NCCNC(=O)c1cc(-c2ccccc2F)ccc1F` [WZ-20, (S)-4-((4-(tert-butylamino)-1-((2-(2',4-difluoro-[1,1'-biphenyl]-3-carboxamido)ethyl)amino)-1,4-dioxobutan-2-yl)amino)-4-oxobutanoic acid], the EC50 in assay [4] was determined as 50.8 ± 0.7 nM. Also, the IC50 came to 0.006 ± 5e-06 µM against Pf20S β5 [5], 3490 nM at human i-20S β5i [6] and 34300 nM on human c-20S β5c [7].
